Here are results for six compounds from patent publication US7037901B1, “Radiosensitization by indolocarbazole derivatives” (priority 2001, dated 2006).

Read-outs that look alike come from different tables or passages of the source.

Data set [1] addresses T1, covalent topoisomerase-DNA cross-links in CHO cells (Cricetulus griseus, UniProt Q07050, S505G).
T1 construct: endogenous in cells; host or cells: Chinese hamster ovary CHO cells
Briefly: In vivo K+-SDS co-precipitation assay for protein-DNA cross-links. Format: cell-based, Chinese hamster. On the set-up: key to Protein-DNA cross-links: +++: high activity; ++: modest activity; +: low activity. Conditions: 30-min drug treatment, based on FIG. 5. An excerpt: In vivo K^+-SDS co-precipitation assay for protein-DNA cross-links. The K^+-SDS co-precipitation assay as described previously (Chen, Y. N., et al., J. Biol. Chem., 265:10073–10080 (1990)) was used to quantify the formation of covalent topoisomerase-DNA cross-links in drug-treated cells.
Briefly, the DNA in logarithmic growing Chinese hamster CHO cells was overnight-labeled in medium containing 1 μCi/ml of [mehtyl-^3H] thymidine. These cells were then trypsinized and diluted in fresh medium before aliquoted into a 24-well plate. After overnight incubation, the labeled cells were treated with various concentrations of drugs for 30 min, washed with phosphate-buffered saline once, and lysed by adding 1 ml of prewarmed lysis solution (1.25% SDS, 5 mM EDTA, 0.4 mg/ml salmon sperm DNA, pH 8.0, 65° C.).
Following shearing chromosomal DNA by passing the lysate through a 19-gauge needle, the sample was transferred to a tube containing 0.25 ml of 325 mM KCl. The sample was vortexed vigorously for 10 s, cooled on ice for 10 min and centrifuged at 3000 rpm for 10 min at 4° C.
The pellet was then resuspended in 1 ml of a wash solution (100 mM KCl, 1 mM EDTA, 0.1 mg/ml salmon sperm DNA, 10 mM Tris-HCl, pH 8.0) and placed at 65° C. for 10 min with occasional mixing. The sample was again cooled on ice for 10 min and centrifuged at 3000 rpm for 10 min at 4° C. After the pellet from each sample was washed again, the pellet was finally resuspended in 0.2 ml of 65° C. water and added to 5 ml of scintillation fluid to determine radioactive counts.
The background precipitable counts were obtained by treating the lysate with proteinase K (400 μg/ml) at 65° C. for 2 h. Data are arithmetic means (±SD) of three determinations, and the background counts have been subtracted.

The test system of data set [2] is DC3F cells. Briefly: Radiosensitization in DC3F cells (clonogenic survival with radiation). The following applies: for Induction of RS: concentrations as high as 10 μg/ml (data not shown). The format is cell-based, Chinese hamster. The method, then:
(§1) Clonogenic Survival Assay. […] 18–24 h prior to experimental studies.
(§2) Colonies consisting of >50 cells were counted.
(§3) Irradiation of Cells. Drug-treated and control cells in medium were irradiated using a cobalt-60 source (Eldorado 8; Theratronics, Canada) at a dose rate of 105 cGy/min.
(§4) Analysis of Survival Curves. Survival curves were corrected for cytotoxicity induced by drug alone treatment. Sensitization enhancement ratios (SERs) and standard deviations for survival curves were determined at 10% cell survival. Each SER was calculated by dividing the radiation dose to induce 10% cell survival in the absence of radiosensitizer with the radiation dose to induce 10% cell survival in the presence of radiosensitizer.

The test system of data set [3] is human MCF-7 and Chinese hamster DC3F cells. Put plainly: RS activity summary (MCF-7 and DC3F cells). The format is cell-based. On the set-up: key: +: possess RS activity; −: possess no RS activity. Conditions: MCF-7 (FIG. 2) and DC3F cells (Table 4). The method, then: as §1, §2, §3, §4
Data set [4] deals with Chinese Hamster lung fibroblast DC3F cells. Put plainly: Clonogenic survival assay, cytotoxicity in DC3F cells. The method, then: Clonogenic Survival Assay. For a typical clonogenic survival experiment, stock cultures of exponentially growing cells were trypsinized, rinsed, and plated (5×10^5 cells per dish for DC3F and DC3F/C-10 cells; 1×10^6 cells for MCF-7 cells) into 100-mm petri dishes and incubated at 37° C. 18–24 h prior to experimental studies.
Following various experimental protocols with drug incubation and irradiation, cells were trypsinized, rinsed, counted, and plated for […] colony formation. Depending on the anticipated survival level, 10^2 to 10^5 cells were plated per dose point. When higher cell numbers were plated, large petri dishes were used to avoid possible cell-density effect (100-mm instead of 60-mm petri dishes for cell number≧5×10^4). Depending on the treatment protocols, an equivalent amount of DMSO was added into each of the control radiation alone dishes (final DMSO concentration <0.1%).
Following seven to fourteen days of incubation, colonies were fixed with methanol/acetic acid (3:1), stained with crystal violet. Colonies consisting of >50 cells were counted. All survival points were done in triplicate, and experiments were conducted a minimum of two times. Error bars shown in the figures represent standard deviations (SD) and are shown when larger than the symbol.
The DC3F/C-10 cell line was selected from the Chinese Hamster lung fibroblast DC3F cell line in the presence of 1 μM of camptothecin (Albright, N., Radiat. Res., 112:331–340 (1987), and Chen, Y. N., J. Biol. Chem., 265:10073–10080 (1990)). […] In an attempt to determine the importance of TOP1 in mediating the cytotoxic and radiosensitizing effects by INDO derivatives, clonogenic survival assays were performed in DC3F and DC3F/C10 cells.

For data set [5], the system named is TOP1 mutant DC3F/C10 cells. Put plainly: Radiosensitization in DC3F/C10 cells (clonogenic survival with radiation). The format is cell-based, Chinese hamster. Conditions: for Radiation Dose (Gy) at 10% Survival / SER / Induction of RS: DC3F/C10 cells; for Resistance of DC3F/C-10 cells to induction of RS: in comparison to the DC3F cells, Table 4; for Induction of RS: concentrations as high as 10 μg/ml (data not shown). The method, then: as §1, §2, §3, §4

Data set [6] has as its system Chinese hamster CHO cells. Put plainly: Radiosensitization in CHO cells (preliminary, data not shown). The format is cell-based. Conditions: non-cytotoxic concentrations of 2 μg/ml and 10 μg/ml.
The target in data set [7] is camptothecin-resistant TOP1 mutant F361S (Homo sapiens, UniProt P11387, F361S). Conditions: published work; cited from earlier work.
camptothecin-resistant TOP1 mutant F361S, sequence (P11387 whole entry F361S): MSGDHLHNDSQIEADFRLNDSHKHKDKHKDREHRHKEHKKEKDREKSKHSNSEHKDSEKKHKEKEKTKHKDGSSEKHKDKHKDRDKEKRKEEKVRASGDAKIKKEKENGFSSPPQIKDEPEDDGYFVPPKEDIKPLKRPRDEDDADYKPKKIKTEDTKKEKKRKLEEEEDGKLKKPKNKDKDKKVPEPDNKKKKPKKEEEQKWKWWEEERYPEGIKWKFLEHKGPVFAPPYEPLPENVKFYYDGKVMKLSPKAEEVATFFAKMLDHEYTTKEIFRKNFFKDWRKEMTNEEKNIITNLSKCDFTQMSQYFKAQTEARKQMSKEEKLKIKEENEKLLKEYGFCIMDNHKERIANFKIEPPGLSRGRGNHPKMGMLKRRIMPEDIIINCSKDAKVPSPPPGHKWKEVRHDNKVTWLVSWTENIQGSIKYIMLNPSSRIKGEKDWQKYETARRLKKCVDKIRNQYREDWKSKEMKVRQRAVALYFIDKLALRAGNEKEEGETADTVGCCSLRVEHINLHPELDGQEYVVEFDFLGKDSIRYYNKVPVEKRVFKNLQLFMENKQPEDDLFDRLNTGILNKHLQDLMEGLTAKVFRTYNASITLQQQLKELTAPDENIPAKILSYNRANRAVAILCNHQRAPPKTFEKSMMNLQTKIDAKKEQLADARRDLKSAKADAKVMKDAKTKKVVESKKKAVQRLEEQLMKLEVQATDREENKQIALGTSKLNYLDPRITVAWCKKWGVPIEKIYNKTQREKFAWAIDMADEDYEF

T1 sequence (Q07050 2-767 S505G): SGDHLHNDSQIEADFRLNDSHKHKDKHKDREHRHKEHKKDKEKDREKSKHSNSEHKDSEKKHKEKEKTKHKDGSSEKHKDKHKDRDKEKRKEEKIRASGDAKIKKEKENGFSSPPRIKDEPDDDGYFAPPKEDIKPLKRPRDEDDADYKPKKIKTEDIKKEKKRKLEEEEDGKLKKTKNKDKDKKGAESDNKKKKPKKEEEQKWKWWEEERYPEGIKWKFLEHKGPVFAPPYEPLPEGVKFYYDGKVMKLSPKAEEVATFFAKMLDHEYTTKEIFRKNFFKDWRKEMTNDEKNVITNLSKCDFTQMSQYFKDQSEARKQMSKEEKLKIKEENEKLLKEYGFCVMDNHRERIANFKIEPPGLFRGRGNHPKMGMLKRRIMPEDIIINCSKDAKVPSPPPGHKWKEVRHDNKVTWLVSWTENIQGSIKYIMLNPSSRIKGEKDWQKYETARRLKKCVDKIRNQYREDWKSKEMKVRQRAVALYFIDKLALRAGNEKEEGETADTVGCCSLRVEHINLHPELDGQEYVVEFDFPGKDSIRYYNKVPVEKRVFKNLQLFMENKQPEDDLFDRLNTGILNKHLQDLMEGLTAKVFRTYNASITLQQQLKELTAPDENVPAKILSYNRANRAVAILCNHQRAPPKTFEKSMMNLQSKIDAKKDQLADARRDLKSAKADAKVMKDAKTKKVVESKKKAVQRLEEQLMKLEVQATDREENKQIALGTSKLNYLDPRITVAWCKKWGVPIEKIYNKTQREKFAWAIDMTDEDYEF

`CO[C@H]1[C@H](O)[C@@H](O)[C@H](n2c3c(Cl)cccc3c3c4c(c5c6cccc(Cl)c6[nH]c5c32)C(=O)NC4=O)O[C@@H]1CO` [F1, rebeccamycin]: the Protein-DNA cross-links entry in data set [1] is listed as “++”. For the same compound, the “Radiation Dose (Gy) at 10% Survival” value in data set [2] (1.0 μg/ml) is listed as 4.9 Gy; in data set [2] (5.0 μg/ml), 4.6 Gy; in data set [5] (5.0 μg/ml), 4.8 Gy; in data set [5] (25 μg/ml), 4.5 Gy. Further, the SER was 1.2 in data set [2] (1.0 μg/ml), 1.3 in data set [2] (5.0 μg/ml), 1.1 in data set [5] (5.0 μg/ml) and 1.2 in data set [5] (25 μg/ml). The “RS (radiosensitization activity)” value in data set [3] is reported as “+”. Also, in data set [4], the Cytotoxic effect entry was “lack of cytotoxic effect”. Also, in data set [5], the “Resistance of DC3F/C-10 cells to induction of RS” value is listed as “showed resistance to induction of RS”.

Consider `COC1C(CO)OC(n2c3ccccc3c3c4c(c5c6ccccc6[nH]c5c32)C(=O)OC4=O)C(O)C1O` (stereo not shown) [F5], for which the “Induction of RS” value in data set [6] is on record as “potent inducer of RS”. Further, the Protein-DNA cross-links result in data set [1] was “+”. Further, in data set [3], the “RS (radiosensitization activity)” value is “+”. The Cytotoxic effect result in data set [4] (DC3F cells) is listed as “lack of cytotoxic effect”.

Take `COC1C(CO)OC(n2c3ccccc3c3c4c(c5c6ccccc6[nH]c5c32)C(=O)N(O)C4=O)C(O)C1O` (stereo not shown) [F7]: the Protein-DNA cross-links entry in data set [1] was “++”. In addition, the “Radiation Dose (Gy) at 10% Survival” value in data set [2] (2.5 μg/ml) is reported as 4.6 Gy; in data set [2] (5.0 μg/ml), 3.9 Gy; in data set [2] (10 μg/ml) it was 3.6 Gy; in data set [5] (5.0 μg/ml), 5.2 Gy; in data set [5] (10 μg/ml), 4.9 Gy; in data set [5] (20 μg/ml), 4.1 Gy. The SER in data set [2] (2.5 μg/ml) was determined as 1.3; in data set [2] (5.0 μg/ml) it was 1.5; in data set [2] (10 μg/ml), 1.7; in data set [5] (5.0 μg/ml) it was 1.0; in data set [5] (10 μg/ml), 1.1; in data set [5] (20 μg/ml), 1.3. Besides, the “RS (radiosensitization activity)” value in data set [3] is “+”. For the same compound, in data set [7], the “Cross-resistance of mutant TOP1” value is on record as “cross-resistant”. The “Resistance of DC3F/C-10 cells to induction of RS” value in data set [5] is “showed resistance to induction of RS”.

`COC1C(CO)OC(n2c3c(Cl)cccc3c3c4c(c5c6cccc(Cl)c6[nH]c5c32)C(=O)N(C)C4=O)C(O)C1O` (stereo not shown) [F43]: in data set [1], the Protein-DNA cross-links entry is “+”. Moreover, the “RS (radiosensitization activity)” value in data set [3] was “−”. For the same compound, in data set [4] (DC3F cells), the Cytotoxic effect entry is reported as “lack of cytotoxic effect”.

Take `COC1C(CO)OC(n2c3ccccc3c3c4c(c5c6ccccc6[nH]c5c32)C(=O)N(C)C4=O)C(O)C1O` (stereo not shown) [F44]: the Protein-DNA cross-links result in data set [1] is reported as “++”. In addition, the “Induction of RS” value in data set [2] and in data set [5] was “incapable of inducing RS” throughout. Also, the “RS (radiosensitization activity)” value in data set [3] was “−”.

For the compound `COC1C(CO)OC(n2c3ccccc3c3c4c(c5c6ccccc6[nH]c5c32)C(=O)NC4=O)C(O)C1O` (stereo not shown) [F71], the Protein-DNA cross-links entry in data set [1] was “+++”. Moreover, the “Induction of RS” value in data set [2] and in data set [5] was “incapable of inducing RS” each time. Besides, the “RS (radiosensitization activity)” value in data set [3] is given as “−”.
